One experiment has as its system Human whole blood pERK. The experiment is described as follows: Assay 11: DGK Human Whole Blood pERK Assay. The conditions noted are these: anti-CD3 stimulation, pERK positive within CD8 positive population, starting concentration 20 μM, read-out: DGK HWB pERK IC50. Type of experiment: cell-based. The protocol: Assay 11: DGK Human Whole Blood pERK Assay
Human whole blood ERK phosphorylation assay was performed with human venous whole blood obtained from healthy donors (drawn with Heparin as anti-coagulant). Serial dilutions of compounds (11 points, 3-fold) in DMSO were added to 384 well plates at 20 nL/well using an ECHO 550 acoustic dispenser (Labcyte) to achieve final starting concentration of 20 μM in assay. Heparinized human whole blood was added to the compound plate at 9 μL per well and incubated for one hour at 37° C. in a humidified 95%, air/5% CO2 incubator. After one hour of compound incubation, 1 μL of human anti-CD3 antibody (in-house) in the presence of cross-linking antibody goat anti-mouse IgG (4 μg/mL) was added to the well at 1 μg/mL final concentration for stimulation of pathway and additionally incubated for 15 minutes at 37° C. Stimulation was stopped by adding 90 μL Fix/Lyse buffer (BD 558049). Cells were washed and stained with anti-CD8 PE (BD 555635) antibodies for 60 minutes at room temperature, washed again, and permeabilized on ice using Perm III buffer (BD 558050) for 30 minutes. Cells were then stained with an Alexa Fluor® 647 anti-ERK1/2 Phospho (Thr202/Tyr204) Antibody (Bioleged 675504) for 60 minutes at 1:50 dilution. Samples were washed and resuspended in dPBS containing 1% BSA (dPBS, Gibco 14190136; BSA, Sigma-Aldrich A9205). Samples analyzed using the Intellicyt® iQue Screener PLUS. The pERK activation was quantitated by the percentage of pERK positive population within CD8 positive population.

A further experiment addresses DGKα (Homo sapiens (Human), UniProt P23743). The experiment is described as follows: Assay 2: In Vitro DGK Inhibition Assays, Method B (DGKα ADPGLO). Type of experiment: biochemical. The conditions noted are these: 150 μM ATP. As to the method:
Assay 2: In Vitro DGK Inhibition Assays—Method B
The DGKα and DGKζ reactions were performed using either extruded liposome (DGKα and DGKζ LIPGLO assays) or detergent/lipid micelle substrate (DGKα and DGKζ assays). The reactions were carried out in 50 mM MOPS pH 7.5, 100 mM NaCl, 10 mM MgCl2, 1 μM CaCl2), and 1 mM DTT (assay buffer). The reactions using a detergent/lipid micelle substrate also contained 50 mM octyl B-D-glucopyranoside. The lipid substrate concentrations were 11 mM PS and 1 mM DAG for the detergent/lipid micelle reactions. The lipid substrate concentrations were 2 mM PS, 0.25 mM DAG, and 2.75 mM PC for the extruded liposome reactions (5 mM total lipid). The reactions were carried out in 150 μM ATP. The enzyme concentrations for the DGKα and DGKζ were nM.
The compound inhibition studies were carried out as follows: 25 nL droplets of each test compound (top concentration 10 mM with 11 point, 3-fold dilution series for each compound) solubilized in DMSO were transferred to wells of a white 1536 well plate (Corning 3725). A 5 mL enzyme/lipid substrate solution at 2× final reaction concentration was prepared by combining 2.5 mL 4× enzyme solution (20 nM DGKα or DGKζ (prepared as described below) in assay buffer) and 2.5 mL of either 4× liposome or 4× detergent/lipid micelle solution (compositions described below) and incubated at room temperature for 10 minutes. Next, 1 μL 2× enzyme/lipid substrate solution was added to wells containing the test compound and reactions were initiated with the addition of 1 μL 300 uM ATP. The reactions were allowed to proceed for 2 hr, after which 2 μL Glo Reagent (Promega V9101) was added and incubated for 40 minutes. Next, 4 μL Kinase Detection Reagent was added and incubated for 30 minutes. Luminescence was recorded using an EnVision microplate reader. […] The compounds were evaluated at 11 concentrations to determine IC50.
The detergent/lipid micelle was prepared by combining 15 g phosphatidylserine (Avanti 840035P) and 1 g diacylglycerol (8008110) and dissolving into 150 mL chloroform in a 2 L round bottom flask. Chloroform was removed under high vacuum by rotary evaporation. The resulting colorless, tacky oil was resuspended in 400 mL 50 mM MOPS pH 7.5, 100 mM NaCl, 20 mM NaF, 10 mM MgCl2, 1 μM CaCl2), 1 mM DTT, and 200 mM octyl glucoside by vigorous mixing. The lipid/detergent solution was split into 5 mL aliquots and stored at −80° C.
The lipid composition was 5 mol % DAG (Avanti 8008110), 40 mol % PS (Avanti 840035P), and 55 mol % PC (Avanti 850457) at a total lipid concentration of […] for the liposome solution. The PC, DAG, and PS were dissolved in chloroform, combined, and dried in vacuo to a thin film. The lipids were hydrated to 20 mM in 50 mM MOPS pH 7.5, 100 mM NaCl, 5 mM MgCl2, and were freeze-thawed five times. The lipid suspension was extruded through a 100 nm polycarbonate filter 10-12 times. Dynamic light scattering was carried out to confirm liposome size (50-60 nm radius). The liposome preparation was stored at 4° C. for as long as four weeks.
Human MA-hDGKα-(S9-S727)-Ct-TVMV-His-pFBgate and full length human DGK-ζ-transcript variant-2-TVMV-His-pFBgate baculovirus samples were generated using the Bac-to-Bac baculovirus expression system (Invitrogen) according to the manufacturer's protocol (note: MA- in name of DGKα reagents indicates two extra amino acids added prior to Ser-9). The DNA used for expression of the DGK-α(9-727) and DGK-C have SEQ ID NOs: 5 and 3, respectively. […]
(ADP-Glo turns the ADP formed in a reaction into a luminescent signal.)

Three molecules from patent US12454531B2, “Substituted piperazine derivatives useful as T cell activators” (BRISTOL-MYERS SQUIBB COMPANY, priority 2019, dated 2025) can be followed below.

Like-named read-outs stand apart in the source and are kept apart here.

In general, IC50 refers to the midpoint of a concentration-inhibition curve.

Sequence of DGKα (P23743 other isoform, or with tags, fused parts or gaps): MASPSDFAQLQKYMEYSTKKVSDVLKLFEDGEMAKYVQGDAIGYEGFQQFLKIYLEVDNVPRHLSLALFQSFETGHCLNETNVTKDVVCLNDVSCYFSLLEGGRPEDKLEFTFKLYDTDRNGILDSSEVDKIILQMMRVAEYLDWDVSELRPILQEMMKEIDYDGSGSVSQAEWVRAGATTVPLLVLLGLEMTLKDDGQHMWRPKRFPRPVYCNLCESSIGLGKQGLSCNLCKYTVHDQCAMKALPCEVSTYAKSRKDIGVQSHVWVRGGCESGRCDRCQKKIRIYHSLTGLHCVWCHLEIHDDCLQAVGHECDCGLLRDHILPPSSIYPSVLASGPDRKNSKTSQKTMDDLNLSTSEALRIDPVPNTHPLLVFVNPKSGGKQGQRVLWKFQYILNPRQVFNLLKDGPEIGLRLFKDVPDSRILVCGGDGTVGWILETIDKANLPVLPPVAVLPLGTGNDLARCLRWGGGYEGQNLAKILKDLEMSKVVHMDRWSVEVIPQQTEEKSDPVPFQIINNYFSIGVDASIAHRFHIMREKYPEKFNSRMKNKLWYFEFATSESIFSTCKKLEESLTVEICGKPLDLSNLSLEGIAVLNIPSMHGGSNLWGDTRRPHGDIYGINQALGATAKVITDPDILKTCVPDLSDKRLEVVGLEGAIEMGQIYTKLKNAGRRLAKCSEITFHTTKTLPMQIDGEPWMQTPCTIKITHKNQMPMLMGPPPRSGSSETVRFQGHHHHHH

`CC[C@H]1CN(C(C(=O)N2CCOCC2)c2ccc(C(F)(F)F)cc2)[C@H](CC)CN1c1nc(=O)n(C)c2ccc(C#N)nc12` (single isomer, unassigned) [Example 53]: the IC50 in the experiment on Human whole blood pERK (Homo sapiens, CD8 positive) is 5530 nM; against DGKα it was 1970 nM.

With `CC[C@H]1CN(C(C(=O)N2CCOCC2)c2ccc(C(F)(F)F)cc2)[C@H](CC)CN1c1nc(=O)n(C)c2ccc(C#N)nc12` (single isomer, unassigned) [Example 54], the values for the IC50 with Human whole blood pERK and against DGKα were 3510 nM and 260 nM, respectively.

With `CC[C@H]1CN(C(C(=O)NCCOC)c2ccc(C(F)(F)F)cc2)[C@H](CC)CN1c1nc(=O)n(C)c2ccc(C#N)nc12` (single isomer, unassigned) [Example 56], the IC50 with Human whole blood pERK (Homo sapiens, CD8 positive) was determined as 300 nM; against DGKα, 7500 nM.
